Test results as given in PubChem BioAssay AID2305 (GlaxoSmithKline (GSK), 2010).

What follows are molecules tested on P. falciparum 3D7 growth, pLDH absorbance (assay: blood-stage malaria parasite growth potency – strain 3D7, dose response (AID 2305)).
`O=C(Nc1cc(C(F)(F)F)cc(C(F)(F)F)c1)c1cc(C(F)(F)F)cc(C(F)(F)F)c1` was tested, and the IC50 was 870 nM.
Work on `CC(C)C[C@H](NC(=O)c1cc2ccccc2s1)C(=O)N[C@H]1CCN(Cc2ccc(OCCCN(C)C)c(Cl)c2)C1` yielded an IC50 of 900 nM.
`Cc1cc(N2CCCC2)nc(Nc2ccc(NC(=O)C(C)Oc3ccccc3)cc2)n1` (stereo unspecified) showed an IC50 of 1140 nM.
`CCNC(=O)Nc1ccc(-c2ccc(-c3nc4c(C)cccc4[nH]3)s2)cc1` gave an IC50 of 1070 nM.
In the case of `N#Cc1cc([N+](=O)[O-])ccc1-n1nc(C(N)=O)n(Cc2cccc(F)c2)c1=S`, the IC50 is reported as 720 nM.
`CN(C)c1ccc(CN2CCC(CNC(=O)c3cc(-c4ccccc4F)cs3)C2)cc1` (stereo unspecified) showed an IC50 of 910 nM.
Work on `COc1cccc2cc(C(=O)N[C@@H](CC(C)C)C(=O)N[C@H](/C=N/N3CCOC3=O)CC(C)C)oc12` yielded an IC50 of 740 nM.
In the case of `O=C(NCc1ccccc1)Nc1cccc(-c2cccc(-c3nc4ccc(C(F)(F)F)cc4[nH]3)c2)c1`, the IC50 is reported as 260 nM.
`Clc1ccc(Nc2nc3ccc(Cl)cc3nc2Nc2ccc(Cl)cc2)cc1` showed an IC50 of 130 nM.
Molecule `C[C@H](Cc1ccc(C[C@@H](C)NCC(O)c2cc(Cl)c(N)c(Cl)c2)cc1)NCC(O)c1cc(Cl)c(N)c(Cl)c1` (stereo partly specified) has an IC50 of 890 nM.
With `O=C(C=Cc1ccc(Br)cc1)N1CCC(CCN2CCC(c3c[nH]c4ccccc34)CC2)CC1` the IC50 was 920 nM.
`Cn1cncc1C(=O)NC1CCN(c2ccnc(Nc3ccc(F)cc3)n2)C1` (stereo unspecified) gave an IC50 of 830 nM.
`COc1cc(Nc2nc(N)c3cc(OC)c(OC)cc3n2)cc(OC)c1` showed an IC50 of 270 nM.
With `Cc1ccc(O)c(-c2cc(C(=O)Nc3ccc(S(=O)(=O)N4CCCC(C)C4)cc3)[nH]n2)c1` (stereo unspecified) the IC50 was 710 nM.
`COc1ccc(S(=O)(=O)Nc2cc(C)cc(Br)c2OC)cc1N1CCN(C(=O)C(Cl)(Cl)Cl)CC1` showed an IC50 of 870 nM.
`O=C(/C=C/c1ccc(C(F)(F)F)cc1)NCCCCCN1CCCN(C(=O)Nc2ccc(F)c(Cl)c2)CC1` was tested, and the IC50 was 370 nM.
Work on `O=C(c1cc2ccccc2o1)N1CCc2cc3nccc(N4CCN5CCC[C@H]5C4)c3cc21` yielded an IC50 of 810 nM.
`COc1cc2nc(C)nc(Nc3ccc(Oc4ccccc4)cc3)c2cc1OC` showed an IC50 of 720 nM.
`O=C(/C=C/c1ccc(Cl)c(Cl)c1)N1CCC(CN2CCC(c3c[nH]c4ccc(NS(=O)(=O)c5cccs5)cc34)CC2)CC1` showed an IC50 of 220 nM.
Molecule `Cc1cc(OCCCN2CCN(CCN3CCOCC3)CC2)ccc1NC(=O)COc1ccc(Cl)cc1C(=O)c1cc(Cl)cc(C#N)c1` has an IC50 of 700 nM.
`Nc1nc(N)c2c3c(cnc2n1)CCCC3` gave an IC50 of 770 nM.
`O=C(CCc1cnc[nH]1)Nc1cccc(-c2ccc(-c3nc4ccc(F)cc4[nH]3)cc2)c1` was tested, and the IC50 was 240 nM.
`CCOc1cc(C(=O)NCCN(C(C)C)C(C)C)ccc1-c1nc2ccc(Cl)cc2[nH]1` was tested, and the IC50 was 780 nM.
For `Cc1nnc2c(NC(=O)NC(C)C)cc3cc(-c4ccc(CN5CCCCC5)cc4)ccc3n12`, the IC50 was 1180 nM.
In the case of `CCOC(=O)c1[nH]c(-c2ccccc2)nc1NC(=S)NC1CCCCC1`, the IC50 is reported as 840 nM.
`N=C1SC(=Cc2cn[nH]c2-c2ccc(F)cc2)C(=O)N1c1nccs1` gave an IC50 of 220 nM.
For `CN(C)c1cc(C(=O)N[C@@H](Cc2ccccc2)[C@H](O)CNC2CCCCC2)cc2[nH]ccc12`, the IC50 was 1070 nM.
With `CN(C)CCOc1ccc(N2CCN(CCCCNC(=O)c3ccc(NC(=O)c4ccc(Cl)cc4)cc3)CC2)cc1` the IC50 was 830 nM.
Work on `O=C(Nc1ccc(C(=O)Nc2ccc(C3=NCCN3)cc2)cc1)Nc1ccc(C2=NCCN2)cc1` yielded an IC50 of 180 nM.
Molecule `O=C(Nc1cccc(-c2cccc(-c3nc4ccc(F)cc4[nH]3)c2)c1)c1ccncc1` has an IC50 of 510 nM.
`N[C@@H](CCNCc1ccc(-c2cccnc2)cc1)Cc1ccc(F)c(F)c1` gave an IC50 of 800 nM.
For `Cn1cnc(CCNC(=O)c2ccc(-c3cccc(-c4nc5ccccc5[nH]4)c3)cc2)c1`, the IC50 was 1100 nM.
For `CCc1c[nH]c2c(N(c3ccccc3)S(C)(=O)=O)cc(C(=O)N[C@@H](Cc3ccccc3)[C@H](O)CNC(C)(C)CCCC(C)C)cc12`, the IC50 was 820 nM.
`Cc1cc(N)c2cc(NC(=O)c3cccc(C(=O)Nc4ccc5nc(C)cc(N)c5c4)c3)ccc2n1` showed an IC50 of 260 nM.
`CCOC(=O)c1c(NC(NC(=O)c2ccc(C(C)(C)C)cc2)C(Cl)(Cl)Cl)sc2c1CCCC2` (stereo unspecified) gave an IC50 of 810 nM.
`CC(C)=C(C(=O)OCc1ccccc1)N1C(=O)[C@@H](NC(c2ccccc2)(c2ccccc2)c2ccccc2)[C@H]1[S@@](=O)CC(=O)OC(C)(C)C` showed an IC50 of 1020 nM.
